Reference: patent US10159254B2, “Weed control methods” (Syngenta Participations AG, priority 2013, dated 2018)
“And” between values parts separate entries of the source, which are not always exact repeats. Identical values can stand only once.

Columns and labels:
SYHT0H2 soybeans = experiment: Greenhouse: tank-mix and sequential Sequestrene 138Fe, HPPD-inhibitor maximum injury; assay type: in vivo, soybean; details: mesotrione 420, bicyclopyrone 200, tembotrione 368 g ai/ha
Procedure: Effect of Tank-mix and Sequential Application of Sequestrene® 138 on Mesotrione (Applied as Callisto®)—Maximum Injury in SYHT0H2 Soybeans
An experiment is conducted in the greenhouse to determine the effect of chelated iron (Sequestrene 138Fe containing 6% iron) on HPPD-inhibitor injury to SYHT0H2 soybeans. Soybeans are grown in pots filled with a greenhouse potting mix. When the plants reach the V2-V3 stage, they are sprayed with an HPPD-inhibitor herbicide applied alone (Treatment 1), or in tank mixture with Sequestrene 138Fe (Treatment 2), or sequentially with Sequestrene 138Fe applied 1 day before the HPPD inhibitor (Treatment 3). Sequestrene 138Fe is applied at 2240 g/ha (equivalent to 134 g iron/ha). All treatments are applied with liquid ammonium sulfate @ 2.5% v/v and a non-ionic surfactant (NIS) @ 0.25% v/v in 150 L/ha water. Observations on percent injury are recorded 5, 11, or 22 days after treatment. Data presented are maximum injury observed during the trial.

[1] = system: common waterhemp (Amaranthus rudis); experiment: Greenhouse weed control: HPPD inhibitors with or without Sequestrene 138Fe, common waterhemp; assay type: in vivo; details: common waterhemp control 17 DAT
Procedure: A greenhouse experiment is conducted to determine the effect of chelated iron on weed control in the greenhouse. Velvetleaf (Abutilon theophrasti) and common waterhemp (Amaranthus rudis) plants are grown in 4×4-inch pots filled with a greenhouse potting mix. When the plants reached the 2 to 3 inch height (2 to 3 leaf stage), they are sprayed with a reduced rate of an HPPD inhibitor alone or in a tank mix combination with Sequestrene 138Fe at 140 g/ha (equivalent to 8.4 g iron/hectare) or 280 g/ha (equivalent to 16.8 g iron/hectare). […] Observations on percent control are recorded 12, 19, and 25 days after treatment.
Effect of Tank Mix Applications of Various HPPD Inhibitors and Sequestrene 138Fe on Common Waterhemp Control. Injury Assessed 17 DAT
An experiment is performed to look at the effect of applying iron chelates on control of Common Waterhemp using HPPD-inhibiting herbicides. Experiment design is analogous to that outlined in Experiment 3 above.

SYHT04R soybeans = experiment: Greenhouse: Sequestrene 138Fe safening of HPPD-inhibitors, injury 6 days after treatment; assay type: in vivo, soybean; details: 6 days after treatment (maximum injury), mesotrione 420, bicyclopyrone 200, isoxaflutole 280 g/ha
Procedure: Effect of Sequestrene® 138Fe on Various HPPD-inhibitors in SYHT04R Soybeans. Maximum Injury Assessed 6 Days after Treatment
A greenhouse experiment is conducted to determine if Sequestrene® 138Fe was effective in safening various other HPPD herbicide-tolerant soybean events, such as SYHT04R.
SYHT04R soybean plants are grown in 4×4-inch pots filled with a greenhouse potting mix. When the plants reached the V2-V3 growth stage, they are sprayed with an HPPD inhibitor alone or in combination with Sequestrene® 138Fe at 1120 g/ha (equivalent to 67.2 g iron/ha). […] Observations on percent injury are recorded at 6 and 20 days after treatment. Data presented is from the 6 days after treatment rating representing the maximum injury observed during the experiment.

[2] = system: untransformed clonal tobacco plants (WT); experiment: Wild type tobacco herbicide damage, mesotrione with or without Sequestrene 138; assay type: in vivo, Nicotiana tabacum cv Samsun (tobacco)
Procedure: Effect of Iron Chelates in Mitigating Foliar Bleaching Injury from HPPD Inhibiting Herbicides Across Various Transgenic HPPD Tolerant Tobacco Events Over-expressing HPPD Genes from Different Origins
This experiment is carried out to determine whether iron chelates can mitigate the bleaching injury from HPPD inhibiting herbicides across various transgenic HPPD tolerant tobacco events over-expressing HPPD genes from different origins. These experiments are conducted using three distinct HPPD-overexpressing Nicotiana tabacum cv Samsun (tobacco) lines, one over-expressing wheat HPPD, one overexpressing an Avena HPPD and one over-expressing a HPPD from a bacterial source, Pseudomonas florescens. For each transgenic line, five identical clonal plants were sprayed with each herbicide treatment. Two untransformed clonal tobacco plants are also sprayed ([…]) with each herbicide treatment. Assessments are carried out 3, 7 and 14 days after herbicide application.
All scores represent average % herbicide damage. […] An equivalent safening effect is not observed when the same chemical treatments are applied to wild type plants.

SMILES: CS(=O)(=O)c1ccc(C(=O)C2C(=O)CCCC2=O)c([N+](=O)[O-])c1 [Mesotrione, mesotrione]
- % Maximum Injury (SYHT0H2 soybeans; Sequestrene 138Fe 2240 g/ha applied 1 day before herbicide (Treatment 3, sequential)): 7%
- % Maximum Injury (SYHT0H2 soybeans; herbicide alone (Treatment 1), maximum of 5, 11, 22 days after treatment): 20%
- % Maximum Injury (SYHT0H2 soybeans; tank mix with Sequestrene 138Fe 2240 g/ha (Treatment 2, simultaneous)): 0%
- % Injury ([1]; Sequestrene 138Fe 0 g/ha, g ai/ha: mesotrione 26, isoxaflutole 26, bicyclopyrone 50, tembotrione 46, pyrasulfatole 22, topramezone 18): 77%
- % Injury ([1]; Sequestrene 138Fe 140 g/ha tank mix, mesotrione 26, isoxaflutole 26 g ai/ha): 78%
- % Injury (SYHT04R soybeans; Sequestrene 138Fe 0 g/ha): 23%
- % Injury (SYHT04R soybeans; Sequestrene 138Fe 1120 g/ha): 3%
- % herbicide damage ([2]; Trt 1: mesotrione 50 gai/ha alone, 3DAA): 60% and 65%
- % herbicide damage ([2]; Trt 1: mesotrione 50 gai/ha alone, 7DAA): 80%
- % herbicide damage ([2]; Trt 1: mesotrione 50 gai/ha alone, 14DAA): 85%
- % herbicide damage ([2]; Trt 2: mesotrione 100 gai/ha alone, 3DAA): 70%
- % herbicide damage ([2]; Trt 2: mesotrione 100 gai/ha alone, 7DAA): 80%
- % herbicide damage ([2]; Trt 2: mesotrione 100 gai/ha alone, 14DAA): 85% and 90%
- % herbicide damage ([2]; Trt 3: mesotrione 150 gai/ha alone, 3DAA): 55% and 60%
- % herbicide damage ([2]; Trt 3: mesotrione 150 gai/ha alone, 7DAA): 80%
- % herbicide damage ([2]; Trt 3: mesotrione 150 gai/ha alone, 14DAA): 85%
- % herbicide damage ([2]; Trt 4: mesotrione 50 gai/ha + Sequestrene 138 1000 g/ha, 3DAA): 50%
- % herbicide damage ([2]; Trt 4: mesotrione 50 gai/ha + Sequestrene 138 1000 g/ha, 7DAA): 80%
- % herbicide damage ([2]; Trt 4: mesotrione 50 gai/ha + Sequestrene 138 1000 g/ha, 14DAA): 70% and 75%
- % herbicide damage ([2]; Trt 5: mesotrione 100 gai/ha + Sequestrene 138 1000 g/ha, 3DAA): 60%
- % herbicide damage ([2]; Trt 5: mesotrione 100 gai/ha + Sequestrene 138 1000 g/ha, 7DAA): 80%
- % herbicide damage ([2]; Trt 5: mesotrione 100 gai/ha + Sequestrene 138 1000 g/ha, 14DAA): 75% and 85%
- % herbicide damage ([2]; Trt 6: mesotrione 150 gai/ha + Sequestrene 138 1000 g/ha, 3DAA): 60%
- % herbicide damage ([2]; Trt 6: mesotrione 150 gai/ha + Sequestrene 138 1000 g/ha, 7DAA): 80%
- % herbicide damage ([2]; Trt 6: mesotrione 150 gai/ha + Sequestrene 138 1000 g/ha, 14DAA): 85%
- % herbicide damage ([2]; Trt 7: mesotrione 200 gai/ha alone, 3DAA): 60%
- % herbicide damage ([2]; Trt 7: mesotrione 200 gai/ha alone, 7DAA): 80%
- % herbicide damage ([2]; Trt 7: mesotrione 200 gai/ha alone, 14DAA): 85%
- % herbicide damage ([2]; Trt 8: mesotrione 300 gai/ha alone, 3DAA): 65%
- % herbicide damage ([2]; Trt 8: mesotrione 300 gai/ha alone, 7DAA): 80%
- % herbicide damage ([2]; Trt 8: mesotrione 300 gai/ha alone, 14DAA): 90% and 85%
- % herbicide damage ([2]; Trt 9: mesotrione 400 gai/ha alone, 3DAA): 55% and 60%
- % herbicide damage ([2]; Trt 9: mesotrione 400 gai/ha alone, 7DAA): 80%
- % herbicide damage ([2]; Trt 9: mesotrione 400 gai/ha alone, 14DAA): 85%
- % herbicide damage ([2]; Trt 10: mesotrione 200 gai/ha + Sequestrene 138 1000 g/ha, 3DAA): 55% and 60%
- % herbicide damage ([2]; Trt 10: mesotrione 200 gai/ha + Sequestrene 138 1000 g/ha, 7DAA): 80%
- % herbicide damage ([2]; Trt 10: mesotrione 200 gai/ha + Sequestrene 138 1000 g/ha, 14DAA): 85%
- % herbicide damage ([2]; Trt 11: mesotrione 300 gai/ha + Sequestrene 138 1000 g/ha, 3DAA): 50% and 60%
- % herbicide damage ([2]; Trt 11: mesotrione 300 gai/ha + Sequestrene 138 1000 g/ha, 7DAA): 80%
- % herbicide damage ([2]; Trt 11: mesotrione 300 gai/ha + Sequestrene 138 1000 g/ha, 14DAA): 90% and 85%
- % herbicide damage ([2]; Trt 12: mesotrione 400 gai/ha + Sequestrene 138 1000 g/ha, 3DAA): 55% and 60%
- % herbicide damage ([2]; Trt 12: mesotrione 400 gai/ha + Sequestrene 138 1000 g/ha, 7DAA): 80%
- % herbicide damage ([2]; Trt 12: mesotrione 400 gai/ha + Sequestrene 138 1000 g/ha, 14DAA): 90% and 85%
- % herbicide damage ([2]; Trt 13: mesotrione 400 gai/ha alone, 3DAA): 50% and 55%
- % herbicide damage ([2]; Trt 13: mesotrione 400 gai/ha alone, 7DAA): 80%
- % herbicide damage ([2]; Trt 13: mesotrione 400 gai/ha alone, 14DAA): 95% and 90%
- % herbicide damage ([2]; Trt 14: mesotrione 500 gai/ha alone, 3DAA): 55% and 60%
- % herbicide damage ([2]; Trt 14: mesotrione 500 gai/ha alone, 7DAA): 80%
- % herbicide damage ([2]; Trt 14: mesotrione 500 gai/ha alone, 14DAA): 85%
- % herbicide damage ([2]; Trt 15: mesotrione 600 gai/ha alone, 3DAA): 55%
- % herbicide damage ([2]; Trt 15: mesotrione 600 gai/ha alone, 7DAA): 80%
- % herbicide damage ([2]; Trt 15: mesotrione 600 gai/ha alone, 14DAA): 85%
- % herbicide damage ([2]; Trt 16: mesotrione 400 gai/ha + Sequestrene 138 1000 g/ha, 3DAA): 60% and 55%
- % herbicide damage ([2]; Trt 16: mesotrione 400 gai/ha + Sequestrene 138 1000 g/ha, 7DAA): 80%
- % herbicide damage ([2]; Trt 16: mesotrione 400 gai/ha + Sequestrene 138 1000 g/ha, 14DAA): 90% and 95%
- % herbicide damage ([2]; Trt 17: mesotrione 500 gai/ha + Sequestrene 138 1000 g/ha, 3DAA): 50% and 60%
- % herbicide damage ([2]; Trt 17: mesotrione 500 gai/ha + Sequestrene 138 1000 g/ha, 7DAA): 80%
- % herbicide damage ([2]; Trt 17: mesotrione 500 gai/ha + Sequestrene 138 1000 g/ha, 14DAA): 90%
- % herbicide damage ([2]; Trt 18: mesotrione 600 gai/ha + Sequestrene 138 1000 g/ha, 3DAA): 55%
- % herbicide damage ([2]; Trt 18: mesotrione 600 gai/ha + Sequestrene 138 1000 g/ha, 7DAA): 80%
- % herbicide damage ([2]; Trt 18: mesotrione 600 gai/ha + Sequestrene 138 1000 g/ha, 14DAA): 90% and 85%
